Data published in patent US20210215694A1, “FILM OF CHITOSAN AND A DEVICE COMPRISING THE SAME DEPOSITED ON A SUBSTRATE AND USES THEREOF” (priority 2018, published 2021).
Read-outs that look alike come from different tables or passages of the source.

What was measured:
UTI 687 cells = test: Cell death detection with propidium iodide stain on chitosan χ1; assay type: cell-based, Escherichia coli; conditions: 3 mg/L, 50 μL/mL of PI
Protocol: Following the protocol described in material and methods, UTI 687 cells were contacted with chitosan χ1 surface. Before acquisition, channel was rinsed with LB supplemented with 3 mg/L of ETP and 50 μL/mL of PI (FIG. 11B).

UTI227 [1] = conditions: for Outcome: UTI227
Protocol: CMI determination. Different channels were prepared simultaneously with the same cell suspension. Antibiotic was prepared at different concentrations (one channel contained only LB as a control) and added to channel just before image acquisition: each channel contain a different antibiotic concentration. A picture was taken every 2 or 3 minutes in each channel. At the end of the acquisition we determined if concentrations tested induced cell death or not.
(§1) Minimum inhibitory concentration. Several experiments were performed with different ETP concentrations added to UTI 227 cells.

UTI 227 = test: Dose-dependent answer: time for cell death; assay type: cell-based, Escherichia coli; conditions: different concentrations
Protocol: (§2) Dose-dependent answer. Ertapenem (ETP) is an antibiotic used in the medical field in order to determine MIC. ETP was tested at different concentrations on UTI 227 and for each cell observed, the time for cell death was quantified (FIGS. 7B and 7C). […] Similarly, UTI 687 was contacted with different concentration of mecillinam (MEC), and the cell width was quantified.

UTI 687 [2] = test: Antibiotic susceptibility from blood culture on chitosan χ1; assay type: cell-based, Escherichia coli; conditions: UTI 687 grown in blood culture vial
Protocol: Antibiotic susceptibility from blood culture. UTI 687 was cultivated in LB medium and then diluted to obtain a cell concentration close to the one find in blood during septicemia (final concentration: 5 CFU/ml). The suspension was then inoculated in culture vial for blood culture. After over-night culture (agitation, 37° C.), culture suspension was diluted in LB media for a final OD=0.01. Cells are then prepared as describe in material and method to determine cell susceptibility to ETP.
Antibiotic susceptibility from blood culture. […] These debris probably originate from blood culture media. However, it was possible to determine a CMI: CMIχ1≤1, which is coherent with the expected values.

UTI227 [3] = test: CMI by Vitek; assay type: cell-based, Escherichia coli
Protocol: as §1

K12 cells = conditions: K12 on commercial chitosan; 50 μL/mL PI; after 30 seconds
Protocol: Propidium iodide (PI) is used as a DNA stain which cannot cross the membrane of live cells, making it useful to differentiate dead, dying and healthy cells. K12 cells were immobilized to commercial chitosan on microfluidic chamber (channels in PDMS) in presence or absence of EtOH 70%. Channels were rinsed with LB, 50 μL/mL PI.

UTI 687 [4] = test: Dose-dependent answer: cell width; assay type: cell-based, Escherichia coli; conditions: 2 mg/L, after 1 hour of contact
Protocol: as §2

UTI698 [5] = test: CMI (MIC) determination on chitosan χ1 channels; assay type: cell-based, Escherichia coli
Source text: (§3) For each conditions, a similar result was obtained.

UTI704 [6] = test: CMI (MIC) determination on chitosan χ1 channels; assay type: cell-based, Escherichia coli
Source text: as §3

UTI698 [7] = test: CMI by Vitek; assay type: cell-based, Escherichia coli
Source text: as §3

UTI704 [8] = test: CMI by Vitek; assay type: cell-based, Escherichia coli
Source text: as §3

UTI687 [9] = test: CMI (MIC) determination on chitosan χ1 channels; assay type: cell-based, Escherichia coli
Source text: as §3

UTI687 [10] = test: CMI by Vitek; assay type: cell-based, Escherichia coli
Source text: as §3

K12 = test: Visualization of antibiotics susceptibility; assay type: cell-based, Escherichia coli
Protocol: Visualization of antibiotics susceptibility. Two channels were prepared with K12, identically. Before starting picture acquisition, one channel was rinsed with LB media, the other one with LB media supplemented with 100 μg/ml of ampicillin. […] Morphological changes were observed earlier than 1 hour and cell death imaged by lysis occurred right after 2 hours of incubation.

[11] = concentration 1 (head mg/ml, title mg/L)
[12] = concentration 2 (head mg/ml, title mg/L)
[13] = concentration 0.25 (head mg/ml, title mg/L)
[14] = concentration 0.5 (head mg/ml, title mg/L)

## C[C@@H](O)[C@H]1C(=O)N2C(C(=O)O)=C(S[C@@H]3CN[C@H](C(=O)Nc4cccc(C(=O)O)c4)C3)[C@H](C)[C@H]12 [Ertapenem]
UTI 687 cells
  Propidium iodide staining of cells: some cells turned in red
UTI227 [1]
  Concentration above which a cytotoxic effect was observed: above 0.01 mg/L
UTI227 [1]; concentration 0.01 (mg/L)
  Outcome: Growth
UTI227 [1]; concentration 0.05 (mg/L)
  Outcome: Death
UTI227 [1]; concentration 0.1 (mg/L)
  Outcome: Death
UTI227 [1]; concentration 0.125 (mg/L)
  Outcome: Death
UTI227 [1]; concentration 0.25 (mg/L)
  Outcome: Death
UTI227 [1]; concentration 0.5 (mg/L)
  Outcome: Death
UTI227 [1]; concentration 0.75 (mg/L)
  Outcome: Death
UTI 227
  Time for cell death according to concentration: significantly faster for a higher concentration
UTI 687 [2]
  CMIχ1: ≤ 1
UTI227 [3]
  CMI (Vitek): ≤0.5 mg/L
UTI227 [3]; listed as ETP
  CMI (Vitek): ≤ 0.5 mg/L

## CCO [EtOH 70%, EtOH]
K12 cells
  Propidium iodide fluorescence of cells: all the cells incubated with EtOH were fluorescent

## CC1(C)S[C@@H]2[C@H](/N=C/N3CCCCCC3)C(=O)N2[C@H]1C(=O)O [Mecillinam, mecillinam]
UTI 687 [4]
  Cell width: An augmentation was observed
UTI227 [1]; concentration 4 (mg/L)
  Outcome: Growth
UTI227 [1]; concentration 8 (mg/L)
  Outcome: Death
UTI227 [1]; concentration 12 (mg/L)
  Outcome: Death
UTI227 [1]; concentration 16 (mg/L)
  Outcome: Death
UTI698 [5]; chitosan χ1
  CMI (measured): ≤1 mg/L
UTI698 [5]; [11]
  Outcome: Death
UTI698 [5]; [12]
  Outcome: Death
UTI698 [5]; concentration 5 (head mg/ml, title mg/L)
  Outcome: Death
UTI704 [6]; chitosan χ1
  CMI (measured): ≤2 mg/L
UTI704 [6]; [13]
  Outcome: Growth
UTI704 [6]; [14]
  Outcome: Growth
UTI704 [6]; [11]
  Outcome: Growth
UTI704 [6]; [12]
  Outcome: Death
UTI698 [7]
  CMI (Vitek): ≤1 mg/L
UTI704 [8]
  CMI (Vitek): 2 mg/L
UTI227 [3]
  CMI (Vitek): 8 mg/L

## CC1COc2c(N3CCN(C)CC3)c(F)cc3c(=O)c(C(=O)O)cn1c23 (stereo not shown) [Ofloxacin, ofloxacin]
UTI687 [9]; chitosan χ1
  CMI (measured): ≤0.25 mg/L
UTI687 [9]; [13]
  Outcome: Death
UTI687 [9]; [14]
  Outcome: Death
UTI687 [9]; [11]
  Outcome: Death
UTI687 [9]; [12]
  Outcome: Death
UTI687 [10]
  CMI (Vitek): 0.5 mg/L

## CC1(C)S[C@@H]2[C@H](NC(=O)[C@H](N)c3ccccc3)C(=O)N2[C@H]1C(=O)O [ampicillin]
K12; 100 μg/ml
  Time at which morphological changes were observed: < 1 hour
K12; 100 μg/ml, incubation
  Time of cell death imaged by lysis: ~2 h
K12; LB supplemented with 100 μg/ml
  Effect on cells (in words): cells extended but did not divide
